Our source for the TGI values is PubChem BioAssay (NCI).

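Protocol summary: plate cells (96-well), add compound at 5 concentrations, incubate 48 h, interpolate endpoints linearly. TGI: concentration producing complete growth inhibition.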 Where a SMILES comes first, the peptide text is derived from it. The star is where a group is joined. Boc = CC(C)(C)OC(=O)*

Common to all, as to experiment: NCI-60 cell line screen, 48 h
Assay [1] concerns LOX IMVI melanoma.
Assay [2] deals with MDA-N.
The subject of assay [3] is T-47D breast.
In assay [4] the test system is MDA-MB-231 breast.
The test system of assay [5] is SK-MEL-5 melanoma.
The subject of assay [6] is BT-549 breast.
Assay [7] concerns OVCAR-4 ovarian.
The test system of assay [8] is SN12C renal.
The test system of assay [9] is HOP-92 NSCLC.
The test system of assay [10] is NCI-H226 lung.

On to `Clc1ccc(-c2nc(-c3ccc(Cl)cc3)[s+]s2)cc1`, for which the TGI in [1], in [2], in assay [3], in assay [4], in assay [5] and in assay [6] was more than 100 µM throughout. For the same compound, the TGI in assay [7] is 98.9 µM; in [8] it was more than 100 µM.
For `CCN(CC)CCNc1ccc(N=Nc2ccc(S(N)(=O)=O)cc2)c2ccccc12`, the TGI in [9] was determined as 35.9 µM; in assay [10], 72.7 µM; in [3] it was 8.27 µM; in [4] it was 27.8 µM; in assay [5], 20.3 µM; in [6], 34 µM. Moreover, the TGI in assay [7] stood at 30.9 µM; in [8], 81 µM.
Consider `OC1CN=C2c3ccccc3C(O)(c3ccc(Cl)cc3)N2C1` (stereo not given), for which the TGI was 94.6 µM in assay [9]; more than 100 µM in assay [10]; more than 100 µM in assay [1]; more than 100 µM in [2]; more than 100 µM in assay [3]; more than 100 µM in assay [4]. Also, the TGI in assay [7] and in assay [8] was more than 100 µM each time.
`CC(=O)C(=C(I)I)c1ccccc1`: the TGI in assay [9] stood at 64.5 µM; in assay [10] it was 27.3 µM; in [1] it was 49.1 µM; in [2], 39.9 µM; in [3] it was 50.4 µM; in assay [4], 51.4 µM. In addition, the TGI turned out to be 28.5 µM in assay [5], 31.3 µM in assay [7] and 28.4 µM in assay [8].
With `COC(=O)C(Cc1ccccc1)NC(=O)CNC(=O)CSc1nnc(COc2ccc(Cl)cc2)n1-c1ccccc1` (stereo not given), the TGI in [9] came out at 35.3 µM; in [10], 36.5 µM; in assay [1], 13.8 µM; in assay [3] it was 51.4 µM; in [4] it was 32.7 µM; in assay [5], 29.8 µM. Further, the TGI was 35.6 µM in [6], 21.7 µM in assay [7] and 32.5 µM in [8].
In the case of `CN(C)CCCOC(=O)C(O)(Cc1ccccc1)C1CC1` (stereo not given), the TGI in assay [9], in [10], in assay [1], in assay [2], in [3] and in [4] was more than 100 µM throughout. For the same compound, the TGI in assay [5], in [7] and in [8] was more than 100 µM in each case.
Turning to `O=C(CSc1nc2ccc(I)cc2c(=O)n1Cc1ccccc1)Nc1ccc(Br)cc1`, the TGI in assay [9] was more than 100 µM; in [10], more than 100 µM; in assay [1], more than 100 µM; in assay [3] it was more than 100 µM; in assay [4], 89.7 µM; in [5] it was more than 100 µM. For the same compound, the TGI in assay [6], in assay [7] and in assay [8] was more than 100 µM each time.
`CCCCCCCCOCC1S(=O)(=O)OCCOS1(=O)=O`: the TGI in assay [9], in assay [10], in assay [1], in assay [2], in assay [3] and in assay [4] was more than 100 µM each time. Further, the TGI in [5], in assay [7] and in assay [8] was more than 100 µM throughout.
Regarding `Clc1ccc(OCc2nnc(CCCCCCCCc3nnc(COc4ccc(Cl)cc4Cl)o3)o2)c(Cl)c1`, the TGI in assay [9], in [10], in [2], in assay [4], in assay [5] and in assay [6] was more than 100 µM throughout. Also, the TGI in [7] and in assay [8] was more than 100 µM throughout.
As for `COC(=O)CC1C2CC3C(C2=O)C13` (stereo not given), the TGI in [9], in [10], in [1], in assay [2], in assay [3] and in [4] was more than 100 µM in each case. The TGI in [5], in assay [7] and in [8] was more than 100 µM throughout.
Turning to `CC(NC(=O)C(NC(=O)OC(C)(C)C)C(C)C)C(=O)NCC(=O)O` (stereo not drawn) (Boc-Val-Ala-Gly-OH; configuration not given here), the TGI in assay [9], in assay [2], in assay [3], in assay [5], in assay [6] and in assay [8] was more than 100 µM in each case.
Take `O=C(c1cccs1)N(C(=O)N1CCC(c2ccccc2)CC1)c1ccccc1`: the TGI was more than 100 µM in assay [10]; more than 100 µM in [1]; more than 100 µM in assay [2]; 93.5 µM in [3]; more than 100 µM in assay [4]; 38.8 µM in [5]. Moreover, the TGI in [6] and in [8] was more than 100 µM throughout.
In the case of `CC(Nc1cc(Cl)cc(Cl)c1)c1ccncc1` (stereo not given), the TGI was 25 µM in [10]; 24.8 µM in assay [1]; 45.6 µM in assay [2]; more than 100 µM in [3]; 28.7 µM in assay [5]; 52.7 µM in assay [6]. Also, in assay [7], the TGI is more than 100 µM.
Regarding `Cc1cc2ccccc2c[n+]1CC(=O)CC([O-])(C(F)(F)F)C(F)(F)F`, the TGI in assay [9], in assay [10], in assay [1], in [2], in assay [3] and in assay [4] was more than 100 µM in each case. Moreover, the TGI in assay [5], in [7] and in assay [8] was more than 100 µM each time.
For `COc1ccc(CNc2nc3ccccc3nc2-c2cccs2)cc1`, the TGI is more than 100 µM in assay [9]; more than 100 µM in assay [10]; 43.7 µM in assay [1]; more than 100 µM in [3]; more than 100 µM in [4]; more than 100 µM in [5]. The TGI was 95.4 µM in [6] and more than 100 µM in [7].
As for `CC(NCCS(=O)(=O)O)C(=O)O` (stereo not given), the TGI in assay [9], in assay [10], in [1], in assay [5], in assay [7] and in [8] was more than 100 µM throughout.
